Experimental data: PMC3073400 (Nature biotechnology, 2010)

Type: in vivo
Details: rat brain, 500 μM dopamine alone, no contrast agent, data not shown

NCCc1ccc(O)c(O)c1 [dopamine]
MRI signal changes on infusion alone: no noticeable signal changes
